{"source": "patent US5795899A", "about": "“Soluble salts of 4-amino-2-(4,4-dimethylimidazolidin-2-on-1-yl) pyrimidine-5-carboxylic acid N-methyl-N-(3-trifluoromethylphenyl)-amide, a process for the preparation thereof, the use thereof as pharmaceuticals and starting materials” (Hoechst Aktiengesellschaft, priority 1992, dated 1998)", "key": {"physchem": {"assay": "physchem", "conditions": "water"}, "[1]": {"tested_on": "bronchial carcinoma cells, A 549", "assay": "MTT assay, inhibition of cell proliferation, A 549", "format": "cell-based", "conditions": "Homo sapiens, A549; 72 hours incubation", "description": "(§1) The reduced inhibitory effect on cell proliferation was tested on exponentially growing animal (mouse leukemia cells, L 1210) and human (bronchial carcinoma cells, A 549; colon carcinoma cells, HT 29) tumor cells. This entailed the tumor cells being incubated in RPMI standard medium with various concentrations of the test substances for 72 hours. Cell incubations only in fresh medium served as control. Incubations were set up in quadruplet. […] After incubation for a further 7 to 24 hours, the cell supernatant was carefully removed and the formazan dye in the cells was solubilized by adding DMSO and measured quantitatively by photometry at 492 nm. The ratio of the extinction of the substance incubations to the control incubation was quantified. The coefficient of variation in each incubation series was less than 15%. The following Table 6 indicates the IC50 values (IC50 [μg/ml] is the concentration of the test substance per ml which is necessary for 50% inhibition) from these investigations."}, "LDL receptor mRNA": {"tested_on": "LDL receptor mRNA", "assay": "LDL receptor mRNA expression in vivo in rat livers (Northern blot)", "conditions": "6 hours after single oral dose of 30 mg/kg, FIG. 1", "description": "Liver tissue was removed at the stated time after a single oral dose of 30 mg/kg of the hydrochloride of compound I and was shock-frozen in liquid nitrogen.\nThe Northern blot technique was used to determine the relative LDL receptor MRNA levels. The LDL receptor MRNA level is increased about 2.5-fold after six hours.\nThe mRNA was prepared by the method described by Chomczynski, P. and Sacchi, N. in Anal. Biochem. 162, 156 (1987). In the case of organs (such as, for example, liver), the deep-frozen tissue was previously homogenized in a mortar on dry ice, and the mRNA was further concentrated by means of oligo dT by standard methods (compare Sambrook, J., Fritsch, E. F. and Maniatis, T., Molecular Cloning, second edition, Cold Spring Harbor (1989); this collection of methods also includes descriptions of all the other relevant standard processes of molecular biology used here). […] The filters were subsequently exposed on Cronex 4 films (Dupont) in the presence of an intensifying screen at -70° C. overnight or for up to 14 days, and the hybridization signals were quantified from the intensity of blackening of the film using a commercially available laser densitometer. Subsequently, the quotient was determined from the intensity of the LDL receptor band and of the actin band as internal standard to correct for variations in yield. […]"}, "[2]": {"tested_on": "tumor cells (L 1210, A 549, HT 29)", "assay": "Cell proliferation inhibition (MTT assay), overall statement", "format": "cell-based, mouse and human", "description": "as §1"}, "[3]": {"tested_on": "colon carcinoma cells, HT 29", "assay": "MTT assay, inhibition of cell proliferation, HT 29", "format": "cell-based", "conditions": "Homo sapiens, 72 hours incubation", "description": "as §1"}, "LDL receptor": {"tested_on": "LDL receptor", "assay": "Uptake of 125I-labeled homologous LDL / functional LDL receptor levels on HepG2 cells", "format": "cell-based, human", "conditions": "FIG. 3", "description": "In this test, homologous LDL which had been purified by standard processes was labeled with ^125 I by the iodine monochloride method. Used in this case was the method of Bilheimer which is disclosed in the literature and is a modification of the iodination technique originally developed by McFarlaine (compare Bilheimer, D. W., Eisenberg, S., and Levy, R. L., Biochim. Biophys. Acta, 260, 212 (1972)).\nTo determine the ^125 I-LDL incorporation, HepG2 cells were preincubated with and without hydrochloride of the compound I for 36 hours and subsequently incubated with iodine-labeled LDL at 37° C. in an incubator for 3 hours.\nSubsequently, the cells were washed in the presence of 2% bovine serum albumin, the cells were lyzed with 1 ml of 0.1N NaOH, and the incorporated radioactivity was measured. The specific radioactivity uptake (total radioactivity uptake less the unspecific radioactivity uptake) per mg of protein was then calculated, as generally customary, via a protein determination by the Lowry method, and the radioactivity taken up by the control […] was set equal to 100%."}}, "data": [{"smiles": "CN(C(=O)c1cnc(N2CC(C)(C)NC2=O)nc1N)c1cccc(C(F)(F)F)c1.Cl", "note": "[Compound I as hydrochloride, 4-amino-2-(4,4-dimethyl-2-oxo-1-imidazolidinyl)pyrimidine-5-carboxylic acid N-methyl-N-(3-trifluoromethylphenyl)amide hydrochloride]", "values": [{"measurement": "solubility", "setting": "physchem", "value": 430, "unit": "mg/mL"}, {"measurement": "IC50", "setting": "[1]", "value": "> 100", "unit": "µg/mL"}, {"measurement": "Increase in LDL receptor mRNA level in rat liver", "setting": "LDL receptor mRNA", "value": "about 2.5 -fold"}, {"measurement": "Proliferation inhibition compared with imanixil (HOE 402) / its hydrochloride (in words)", "setting": "[2]", "value": "must be given at a considerably higher dose in order to have the same proliferation-inhibiting effect"}, {"measurement": "Solubility in water (in words)", "value": "good solubility"}, {"measurement": "1 part by mass dissolves in . . . parts of H2 O", "setting": "Table 2, Temp. [°C]: hydrochloride 25.0, nitrate 23.5, p-toluenesulfonate 23.2, hydrogen (R,R)-tartrate 24.6, free base 24.8", "value": "1.33 parts of H2 O"}, {"measurement": "IC50", "setting": "[3]", "value": "> 100", "unit": "µg/mL"}, {"measurement": "Functional LDL receptor levels on HepG2 cells", "setting": "LDL receptor", "value": "corresponding increase"}, {"measurement": "Increase in uptake of 125I-labeled homologous LDL", "setting": "LDL receptor; HepG2, preincubation 36 hours, then 125I-LDL at 37° C. 3 hours", "value": "increased by up to two and a half times"}]}]}
